Measurements from ChEMBL document CHEMBL2401689, “Design, synthesis and antibacterial activity studies of thiazole derivatives as potent ecKAS III inhibitors” (Bioorg Med Chem Lett, 2013).
≈ marks a conversion by molar mass, not a printed value.

Assays:
Staphylococcus aureus = experiment: Antibacterial activity against Staphylococcus aureus ATCC 6538 after 24 hrs by MTT assay; format: functional; details: ATCC 6538, 24 h
Bacillus spizizenii = experiment: Antibacterial activity against Bacillus subtilis ATCC 6633 after 24 hrs by MTT assay; format: functional; details: ATCC 6633, 24 h
[1] = Displacement of [3H]acetyl-CoA from Escherichia coli full-length beta-ketoacyl-ACP synthase3 expressed in Escherichia coli BL21 (DE3) by liquid scintillation counting analysis
[2] = Hemolytic activity in RBC (uinknown origin); format: cell-based; details: erythrocyte
Escherichia coli = experiment: Antibacterial activity against Escherichia coli ATCC 35218 after 24 hrs by MTT assay; format: functional; details: ATCC 35218, 24 h
Pseudomonas aeruginosa = experiment: Antibacterial activity against Pseudomonas aeruginosa ATCC 13525 after 24 hrs by MTT assay; format: functional; details: ATCC 13525, 24 h

MIC (Staphylococcus aureus)	MIC (Bacillus spizizenii)	IC50 [1]	MIC (Escherichia coli)	MIC (Pseudomonas aeruginosa)	SMILES	LC30 [2]
12.5 µg/mL (≈ 30.7 µM)	12.5 µg/mL (≈ 30.7 µM)	34.7 µM	12.5 µg/mL (≈ 30.7 µM)	25 µg/mL (≈ 61.3 µM)	O=C(Cc1ccc(Cl)cc1)Nc1nc(-c2ccc(Br)cc2)cs1	> 10000 µg/mL
25 µg/mL (≈ 55.3 µM)	25 µg/mL (≈ 55.3 µM)	48.1 µM	25 µg/mL (≈ 55.3 µM)	50 µg/mL (≈ 111 µM)	O=C(Cc1ccc(Br)cc1)Nc1nc(-c2ccc(Br)cc2)cs1	> 10000 µg/mL
3.13 µg/mL (≈ 7.68 µM)	6.25 µg/mL (≈ 15.3 µM)	5.3 µM	1.56 µg/mL (≈ 3.83 µM)	3.13 µg/mL (≈ 7.68 µM)	O=C(Cc1cccc(Cl)c1)Nc1nc(-c2ccc(Br)cc2)cs1	> 10000 µg/mL
6.25 µg/mL (≈ 13.8 µM)	6.25 µg/mL (≈ 13.8 µM)	9.8 µM	6.25 µg/mL (≈ 13.8 µM)	12.5 µg/mL (≈ 27.6 µM)	O=C(Cc1cccc(Br)c1)Nc1nc(-c2ccc(Br)cc2)cs1	> 10000 µg/mL
50 µg/mL (≈ 124 µM)	25 µg/mL (≈ 62 µM)	65.6 µM	25 µg/mL (≈ 62 µM)	50 µg/mL (≈ 124 µM)	COc1cccc(CC(=O)Nc2nc(-c3ccc(Br)cc3)cs2)c1	> 10000 µg/mL
> 100 µg/mL	50 µg/mL (≈ 108 µM)	–	50 µg/mL (≈ 108 µM)	25 µg/mL (≈ 54.2 µM)	CCOc1ccc(CC(=O)Nc2nc(-c3ccc(Br)cc3)cs2)cc1OCC	–
> 100 µg/mL	> 100 µg/mL	–	> 100 µg/mL	> 100 µg/mL	O=C(Nc1nc(-c2ccc(Br)cc2)cs1)c1ccccc1	–
> 100 µg/mL	> 100 µg/mL	–	50 µg/mL (≈ 122 µM)	100 µg/mL (≈ 244 µM)	O=C(Nc1nc(-c2ccc(Br)cc2)cs1)c1cccc2ccccc12	–
> 100 µg/mL	> 100 µg/mL	–	> 100 µg/mL	> 100 µg/mL	O=C(Nc1nc(-c2ccc(Br)cc2)cs1)c1ccc2ccccc2c1	–
> 100 µg/mL	100 µg/mL (≈ 272 µM)	–	50 µg/mL (≈ 136 µM)	> 100 µg/mL	O=C(Nc1nc(-c2ccc(Br)cc2)cs1)N1CCOCC1	–
50 µg/mL (≈ 134 µM)	25 µg/mL (≈ 67 µM)	–	50 µg/mL (≈ 134 µM)	50 µg/mL (≈ 134 µM)	O=C(Cc1ccc(Br)cc1)Nc1nc(-c2ccccc2)cs1	–
6.25 µg/mL (≈ 19 µM)	12.5 µg/mL (≈ 38 µM)	12.3 µM	6.25 µg/mL (≈ 19 µM)	6.25 µg/mL (≈ 19 µM)	O=C(Cc1cccc(Cl)c1)Nc1nc(-c2ccccc2)cs1	> 10000 µg/mL
3.13 µg/mL (≈ 8.39 µM)	6.25 µg/mL (≈ 16.7 µM)	26.9 µM	12.5 µg/mL (≈ 33.5 µM)	12.5 µg/mL (≈ 33.5 µM)	O=C(Cc1cccc(Br)c1)Nc1nc(-c2ccccc2)cs1	> 10000 µg/mL
50 µg/mL (≈ 154 µM)	100 µg/mL (≈ 308 µM)	–	50 µg/mL (≈ 154 µM)	50 µg/mL (≈ 154 µM)	COc1cccc(CC(=O)Nc2nc(-c3ccccc3)cs2)c1	–
> 100 µg/mL	> 100 µg/mL	–	50 µg/mL (≈ 131 µM)	50 µg/mL (≈ 131 µM)	CCOc1ccc(CC(=O)Nc2nc(-c3ccccc3)cs2)cc1OCC	–
> 100 µg/mL	> 100 µg/mL	–	> 100 µg/mL	> 100 µg/mL	O=C(Nc1nc(-c2ccccc2)cs1)c1cccc2ccccc12	–
> 100 µg/mL	50 µg/mL (≈ 151 µM)	–	> 100 µg/mL	> 100 µg/mL	O=C(Nc1nc(-c2ccccc2)cs1)c1ccc2ccccc2c1	–
> 100 µg/mL	> 100 µg/mL	–	> 100 µg/mL	> 100 µg/mL	O=C(Nc1nc(-c2ccccc2)cs1)N1CCOCC1	–
25 µg/mL (≈ 67 µM)	25 µg/mL (≈ 67 µM)	–	50 µg/mL (≈ 134 µM)	50 µg/mL (≈ 134 µM)	O=C(Cc1ccccc1)Nc1nc(-c2ccc(Br)cc2)cs1	–
12.5 µg/mL (≈ 31.9 µM)	6.25 µg/mL (≈ 16 µM)	29.3 µM	12.5 µg/mL (≈ 31.9 µM)	12.5 µg/mL (≈ 31.9 µM)	O=C(Cc1ccc(F)cc1)Nc1nc(-c2ccc(Br)cc2)cs1	> 10000 µg/mL
25 µg/mL (≈ 84.9 µM)	50 µg/mL (≈ 170 µM)	–	100 µg/mL (≈ 340 µM)	100 µg/mL (≈ 340 µM)	O=C(Cc1ccccc1)Nc1nc(-c2ccccc2)cs1	–
12.5 µg/mL (≈ 40 µM)	12.5 µg/mL (≈ 40 µM)	38.4 µM	12.5 µg/mL (≈ 40 µM)	25 µg/mL (≈ 80 µM)	O=C(Cc1ccc(F)cc1)Nc1nc(-c2ccccc2)cs1	> 10000 µg/mL
25 µg/mL (≈ 76 µM)	12.5 µg/mL (≈ 38 µM)	41.8 µM	25 µg/mL (≈ 76 µM)	25 µg/mL (≈ 76 µM)	O=C(Cc1ccc(Cl)cc1)Nc1nc(-c2ccccc2)cs1	> 10000 µg/mL
> 100 µg/mL	> 100 µg/mL	–	> 100 µg/mL	> 100 µg/mL	O=C(Nc1nc(-c2ccccc2)cs1)c1ccccc1	–
3.13 µg/mL (≈ 6.47 µM)	0.39 µg/mL (≈ 0.807 µM)	–	1.56 µg/mL (≈ 3.23 µM)	3.13 µg/mL (≈ 6.47 µM)	NC[C@H]1O[C@H](O[C@H]2[C@H](O)[C@@H](O[C@H]3O[C@H](CO)[C@@H](O)[C@H](N)[C@H]3O)[C@H](N)C[C@@H]2N)[C@H](N)[C@@H](O)[C@@H]1O [BEKANAMYCIN]	–

SMILES	MIC (Staphylococcus aureus)	MIC (Bacillus spizizenii)	IC50 [1]	MIC (Escherichia coli)	MIC (Pseudomonas aeruginosa)	LC30 [2]
CC1(C)S[C@@H]2[C@H](NC(=O)Cc3ccccc3)C(=O)N2[C@H]1C(=O)O [PENICILLIN G]	6.25 µg/mL (≈ 18.7 µM)	1.56 µg/mL (≈ 4.67 µM)	–	3.13 µg/mL (≈ 9.36 µM)	6.25 µg/mL (≈ 18.7 µM)	–
